Assay results: ChEMBL document CHEMBL3507680, “University of Dundee, Gates Library screen for HepG2 cell viability”

test: Human HepG2 cell viability assay in 384 well format; assay type: toxicity, cell-based; set-up: dose 125 nL, time 70.5 hour; concentration not given beside the values; settings: HepG2 cells, read-out: Inhibition

In order of falling cytotoxicity at 70.5 h:
1. Cn1ccnc1CN1CCC2(CC1)CCN(c1ccccc1)C2=O  27.2%
2. O=C(NCCCN1CCOCC1)c1ccn(-c2ccc3ccccn23)n1  23.5%
3. CO[C@@H]1CC[C@H]2[C@H]1OCCN2C(=O)c1nn(C)c2ccccc12  20.6%
4. Cc1cncc(C(=O)N2C[C@@H]3CN(S(C)(=O)=O)CCO[C@@H]3C2)c1  19.6%
5. COCC(=O)N1CCc2ccccc2C12CCNCC2  18.5%
6. c1ccn(Cc2nnc3n2CCCN(c2cnccn2)C3)c1  16%
7. Cc1cccc(CN2CCC3(CC2)CC(c2cccnc2)C(=O)N3C)n1 (stereo unspecified)  15.6%
8. O=S(=O)(C1CC1)N1CCC2(CC1)CN(Cc1ccccn1)CCO2  14.8%
9. CN(C)C1CCN(C(=O)c2n[nH]c3c2CCN(CC2CCC2)C3)CC1  14.2%
10. CCc1cnc(N2CC[C@H]3[C@@H]2CCC(=O)N3c2ccccc2)nc1  14.1%
11. CC(C)CS(=O)(=O)N1C[C@H]2C[C@H](C(=O)N3CCOCC3)[C@@H](C1)O2  13.9%
12. Cc1ncoc1C(=O)N1CCn2c(COCC3CC3)cnc2C1C (stereo unspecified)  10.1%
13. CNC(=O)[C@@]12CCO[C@@H]1CCN(Cc1ccc3c(c1)OCO3)C2  9.37%
14. NC(=O)c1nc2c(s1)CCN(C(=O)Nc1ccccc1)CC2  9.18%
15. COCC1CN(Cc2ccc(OC)cc2)Cc2nn(C)cc21 (stereo unspecified)  8.65%
16. O=S(=O)(Nc1ncccc1F)c1cc(Cl)cc2c1OCC2  6.97%
17. C[C@H](O)CNc1cc(-c2cn[nH]c2)ncn1  6.37%
18. CCN(CC)C(=O)c1nc2c(s1)CCN(C(=O)Nc1ccccc1)CC2  5.97%
19. Cc1cccc(CN2CCc3onc(CO)c3C2)n1  5.71%
20. COCC(=O)N1CC[C@@H](O)[C@@H]1Cc1ccccc1  5.48%
21. CN(C)CC(=O)N1CCC2(CC(=O)N(c3cccc(C#N)c3)C2)C1 (stereo unspecified)  4.59%
22. Cc1nc(Cn2c3c(ccc2=O)CC(N)CC3)cs1 (stereo unspecified)  4.04%
23. CN(C)CCOCC1CN(Cc2ccsc2)Cc2ccnn2C1 (stereo unspecified)  3.88%
24. CCc1cc(CNC(=O)N2Cc3ccccc3N(C)CC2C)on1 (stereo unspecified)  3.84%
25. O=C1CC2(CCN(CC3CC3)C2)CN1c1ccc2c(c1)OCO2 (stereo unspecified)  3.77%
26. O=C1CC2(CCN(Cc3ccoc3)C2)CN1c1ccc2c(c1)OCO2 (stereo unspecified)  3.34%
27. CCCS(=O)(=O)NC(=O)c1ccc(CC)o1  2.47%
28. O=C1CCCN1Cc1nnc2n1CCN(Cc1ccco1)C2  2.02%
29. CN1C(=O)C(c2cccnc2)CC12CCN(Cc1nccs1)CC2 (stereo unspecified)  1.71%
30. COCCN1CCC2(CC1)CC(c1cccnc1)C(=O)N2C (stereo unspecified)  1.48%
31. CC(C)[C@@H](CO)Nc1cc(-c2cn[nH]c2)ncn1  0.985%
32. Cc1cc(C(C)(O)CNC(=O)OC(C)(C)C)c(C)o1 (stereo unspecified)  0.912%
33. CCO[C@H]1CC[C@H]2[C@H]1OCCN2C(=O)c1nn(C)c2ccccc12  0.53%
34. Cc1cccc(CN2CCc3onc(CN(C)C)c3C2)n1  0.439%
35. O=C(Nc1cccnc1)[C@@H]1C[C@H]2OCC[C@H]2N(Cc2ccsc2)C1  0.225%
36. COCCC(=O)N1CCn2c(COCC3CC3)cnc2C1C (stereo unspecified)  -0.0494%
37. N#Cc1cccc(N2CC3(CCN(C(=O)c4cccnc4)C3)CC2=O)c1 (stereo unspecified)  -0.309%
38. O=C(NC1CCC1)[C@H]1C[C@@H]2CN(CC3CC3)C[C@H]1O2  -0.535%
39. c1ccc(OCC2C[C@@H]3[C@@H](C2)OCCN3CC2CCOCC2)nc1 (stereo partly specified)  -0.766%
40. O=C([C@@H]1CC[C@@H]2[C@@H](CCN2c2ccncn2)O1)N1CCCCO1  -0.768%
41. Cc1cnc(N2CCO[C@@H]3CC(COCc4cccnc4)C[C@H]32)nc1 (stereo partly specified)  -0.9%
42. Cn1ccc(C(=O)N2CCC3(CCN3c3ncccn3)C2)n1 (stereo unspecified)  -1.24%
43. c1csc(CN2Cc3nc(CN4CCCC4)oc3C2)c1  -1.36%
44. CN(C)Cc1noc2c1CN(Cc1ccc[nH]1)CC2  -1.45%
45. CC(C)n1nc(CN2CCCC2)c2c1CN(CC1CC1)CC2  -1.54%
46. O=C(C1CC1)N1CCc2ccccc2C12CCNCC2  -1.81%
47. O=C(c1cscn1)N1CCc2ncnc(-c3ccncc3)c2CC1  -2.35%
48. CC(C)OCc1nn(C)c2c1CCN(CC1CC1)C2  -2.45%
49. CCOC(=O)N1CCc2ccccc2C12CCNCC2  -2.47%
50. CS(=O)(=O)NC[C@H]1OC[C@@H]2CN(Cc3cccnc3)CC[C@@H]21  -2.64%
51. CC(C)(CO)Nc1cc(-c2ccncc2)ncn1  -2.83%
52. c1cnn(Cc2nnc3n2CCCN(CC2CCOCC2)C3)c1  -2.91%
53. O=C(C1=CCCCC1)N1CCC2(CC1)COC(COc1ccccn1)C2 (stereo unspecified)  -3.14%
54. Fc1cccc(CN2C[C@@H]3CN(c4ncccn4)C[C@@H]3C2)c1  -3.5%
55. c1csc(CN2C[C@H](OCC3CC3)[C@H]3COC[C@H]32)n1  -3.74%
56. c1coc(CN2CCCn3c(nnc3Cn3cccc3)C2)c1  -3.91%
57. O=C1N(Cc2cccnc2)CCC12CCCN(c1ncc(F)cn1)C2 (stereo unspecified)  -3.96%
58. O=C(C1CC=CC1)N1CCC2(CC1)CN(Cc1ccccn1)CCO2  -4.02%
59. O=C1C[C@H]2[C@H](CCN2C(=O)c2ccno2)N1CC1CC1  -4.81%
60. Cc1noc(C)c1C(=O)N1CC[C@H]2C[C@@H](c3ccncn3)O[C@@H]2C1  -5.05%
61. CC(C)NC(=O)N1C[C@H]2C[C@H](C(=O)NCc3ccccc3)[C@@H](C1)O2  -5.16%
62. CC(=O)N1CCC2(CCCN(Cc3ccc(Cl)c(C(F)(F)F)c3)C2)C1 (stereo unspecified)  -5.25%
63. Cn1cccc1C(=O)N1CCCC2(CCCN2Cc2cccnc2)C1 (stereo unspecified)  -5.57%
64. CC(C)n1nc(CN2CCCC2=O)c2c1CN(C(=O)c1ccc[nH]1)C2  -5.63%
65. O=C1N(Cc2cccc(F)c2)CCC12CCCN(c1ncc(F)cn1)C2 (stereo unspecified)  -5.64%
66. Cc1noc([C@H]2CC[C@@H]3[C@@H](CCN3c3ncccn3)O2)n1  -6.01%
67. CN(C)C(=O)CO[C@@H]1CC[C@H]2[C@H]1OCCN2c1ncc(F)cn1  -6.35%
68. CC(=O)N1CCC2(CC1)CNc1c(F)cccc12  -6.53%
69. CCOCC1CC2(CCN(C(=O)c3ccccn3)CC2)CO1 (stereo unspecified)  -6.81%
70. CN(C)C(=O)CN1CCOCC2(CCN(c3ncc(F)cn3)CC2)C1  -6.93%
71. CCc1cnc(N2CC[C@H]3[C@@H]2CCC(=O)N3c2cccnc2)nc1  -7.03%
72. COCC1CN(c2ccc(C)nn2)Cc2cnn(C)c21 (stereo unspecified)  -7.14%
73. CCn1cc2c(n1)C(COC)CN(C(=O)COc1ccccc1C)C2 (stereo unspecified)  -7.2%
74. COCC1CC2(CCN(Cc3ccccn3)CC2)CN1C(C)C (stereo unspecified)  -7.51%
75. CCc1ccc(CN2CCC3(CC(C(=O)NCC(C)C)=NO3)C2)o1 (stereo unspecified)  -7.77%
76. Fc1cnc(N2C[C@@H](OCC3CCOCC3)[C@H]3OCCC[C@H]32)nc1  -7.94%
77. C1CCC(CN2Cc3nnn(CC4CC4)c3C(COCC3CC3)C2)C1 (stereo unspecified)  -8.05%
78. O=C(Cc1ccccc1)N1CCC2(CC1)CC(Nc1cnccn1)CO2 (stereo unspecified)  -8.13%
79. Cc1noc([C@@H]2CC[C@@H]3[C@@H](CCN3c3nnc(C)s3)O2)n1  -8.18%
80. O=C(N1CCOCC1)[C@@]12CCO[C@@H]1CCN(Cc1cccc(F)c1)C2  -8.34%
81. O=C(C1CCOCC1)N1CC[C@H]2C[C@@H](c3ccncn3)O[C@@H]2C1  -8.58%
82. Cc1nc(Cn2c3c(ccc2=O)CC(NC(C)C)CC3)cs1 (stereo unspecified)  -9.3%
83. Fc1cnc(N2CCO[C@H]3[C@H](OCC4CCOCC4)CC[C@@H]32)nc1  -9.91%
84. Cn1cc(CN2CCC3(CC2)CC(c2ccncc2)C(=O)N3)cn1 (stereo unspecified)  -10.1%
85. CN(C)C(=O)CN1CCOCC2(C1)CN(c1ncc(F)cn1)CCO2 (stereo unspecified)  -10.2%
86. O=C1CC[C@H]2[C@H](CCN2c2ncccn2)N1c1ccccc1  -10.3%
87. CCS(=O)(=O)N1CCC2(CC1)CN(Cc1ccccn1)C(=O)CO2  -11.1%
88. COCCN1C[C@H]2[C@@H](C1)N(C(=O)COc1ccccc1)CC[C@H]2OC  -11.3%
89. COCC(=O)N1C[C@@H]2OCCN(Cc3c(C)noc3C)[C@@H]2C1  -11.4%
90. Cc1noc([C@@H]2C[C@@H]3CCN(c4nnc(C)s4)C[C@H]3O2)n1  -11.6%
91. Cc1ccc(C(=O)N2C[C@H]3CCC[C@@]3(COCc3cccnc3)C2)s1  -12%
92. O=C(c1ccnnc1)N1C[C@@H](OCC2CCOCC2)[C@H]2OCCC[C@H]21  -12.9%
93. Cc1cc(CN2CC[C@H]3C[C@H](C(=O)N(C)C)O[C@@H]3C2)no1  -13.6%
94. O=C(CO)N1CCc2onc(Cn3cccn3)c2C1  -13.8%
95. O=C(c1ccncc1)N1CCC2(CC1)CC(Oc1cccnc1)CO2 (stereo unspecified)  -14.5%
96. Cc1cncc(C(=O)N2Cc3ccccc3C3(CCN(C)CC3)C2)c1  -14.6%
97. CN(C)CCN1CCCC12CCN(C(=O)c1cccn1C)CC2  -15.1%
98. O=C(c1cc(C2CC2)on1)N1CC[C@]2(C[C@H](Oc3cccnc3)CO2)C1  -16.2%
99. CN(C)CC(=O)N1C[C@H]2CCC[C@@]2(COc2ccccn2)C1  -16.4%
100. Cn1cc(CN2CCCC3(CCCN3S(C)(=O)=O)C2)cn1 (stereo unspecified)  -16.8%
101. COCCN1C(=O)C[C@@H]2[C@H]1CCN2C(=O)COc1ccccc1  -20.9%
102. c1cnc(N2CCC3(COCCN(CC4CC4)C3)C2)nc1 (stereo unspecified)  -21.1%
103. COCCN1C[C@H]2[C@@H](C1)N(C(=O)c1cccs1)CC[C@H]2OC  -21.9%
104. CCc1ccc(CN2CCC3(CC2)NC(=O)CC3c2ccncc2)o1 (stereo unspecified)  -23%
105. CN1CC(=O)N(c2ccccc2)CC12CCN(CC1CC1)C2 (stereo unspecified)  -26.6%
106. Cc1ccc(N2CCC3(CCN(C(N)=O)CC3)CC2)nn1  -27.1%
